Test results taken from patent US4684664A, “Derivatives of β-(4-isocyano-1,2,3,4-diepoxycyclopentyl) acrylic acid” (Kureha Kagaku Kogyo Kabushiki Kaisha, priority 1984, dated 1987).
Converted amounts (≈) assume the structure as drawn.

Assays:
[1] = test system: Salmonella typhimurium IID 971; assay: Antibacterial activity, agar-dilution MIC, organism No. 8; type: cell-based; conditions: Salmonella enterica; Organism No. 8, bouillon-agar; read-out: Minimum Inhibitory Concentration
In short: (§1)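 MICs were determined by agar dilution on bouillon-agar medium. The value is the minimum concentration of specimen inhibiting growth, expressed as μg/ml of culture medium.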

[2] = test system: Enterobacter aerogenes ATCC 13048; assay: Antibacterial activity, agar-dilution MIC, organism No. 23; type: cell-based; conditions: Klebsiella aerogenes, ATCC13048; Organism No. 23, bouillon-agar; read-out: Minimum Inhibitory Concentration
In short: as §1

[3] = test system: Proteus morganii IFO 3848; assay: Antibacterial activity, agar-dilution MIC, organism No. 18; type: cell-based; conditions: Morganella morganii, IFO3848; Organism No. 18, bouillon-agar; read-out: Minimum Inhibitory Concentration
In short: as §1

[4] = test system: Proteus vulgaris OX-19; assay: Antibacterial activity, agar-dilution MIC, organism No. 20; type: cell-based; conditions: Proteus vulgaris, OX19; Organism No. 20, bouillon-agar; read-out: Minimum Inhibitory Concentration
In short: as §1

[5] = test system: Proteus rettgeri IFO 3850; assay: Antibacterial activity, agar-dilution MIC, organism No. 22; type: cell-based; conditions: Providencia rettgeri, IFO3850; Organism No. 22, bouillon-agar; read-out: Minimum Inhibitory Concentration
In short: as §1

[6] = test system: Pseudomonas aeruginosa IFO 3445; assay: Antibacterial activity, agar-dilution MIC, organism No. 15; type: cell-based; conditions: Pseudomonas aeruginosa, IFO3445; Organism No. 15, bouillon-agar; read-out: Minimum Inhibitory Concentration
In short: as §1

[7] = test system: Aspergillus niger IFO 6342; assay: Antifungal activity, agar-dilution MIC, organism No. 30; type: cell-based; conditions: Aspergillus niger, IFO6342; Organism No. 30, bouillon-agar; read-out: Minimum Inhibitory Concentration
In short: as §1

[8] = test system: Bacillus subtilis ATCC 6633; assay: Antibacterial activity, agar-dilution MIC, organism No. 14; type: cell-based; conditions: Bacillus subtilis, ATCC6633; Organism No. 14, bouillon-agar; read-out: Minimum Inhibitory Concentration
In short: as §1

[9] = test system: Streptococcus pyogenes IFO 3340; assay: Antibacterial activity, agar-dilution MIC, organism No. 26; type: cell-based; conditions: Streptococcus pyogenes, IFO3340; Organism No. 26, bouillon-agar; read-out: Minimum Inhibitory Concentration
In short: as §1

[10] = test system: Pseudomonas aeruginosa NCTC 10490; assay: Antibacterial activity, agar-dilution MIC, organism No. 16; type: cell-based; conditions: Pseudomonas aeruginosa, NCTC10490; Organism No. 16, bouillon-agar; read-out: Minimum Inhibitory Concentration
In short: as §1

[11] = test system: Salmonella paratyphi-A 1015; assay: Antibacterial activity, agar-dilution MIC, organism No. 10; type: cell-based; conditions: Salmonella enterica, PARATYPHI, read-out: Minimum Inhibitory Concentration
In short: as §1

[12] = test system: Candida albicans IAM 4905; assay: Antifungal activity, agar-dilution MIC, organism No. 29; type: cell-based; conditions: Candida albicans, IAM4905; Organism No. 29, bouillon-agar; read-out: Minimum Inhibitory Concentration
In short: as §1

[13] = test system: Staphylococcus aureus FDA 209PJc-1; assay: Antibacterial activity, agar-dilution MIC, organism No. 1; type: cell-based; conditions: Staphylococcus aureus, FDA209PJC1; Organism No. 1, bouillon-agar; read-out: Minimum Inhibitory Concentration
In short: as §1

[14] = Stability in a non-solvent state; type: physicochemical
[15] = test system: Escherichia coli NIHJ-JC-2; assay: Antibacterial activity, agar-dilution MIC, organism No. 5; type: cell-based; conditions: Escherichia coli, NIHJJC2; Organism No. 5, bouillon-agar; read-out: Minimum Inhibitory Concentration
In short: as §1

[16] = test system: Pseudomonas aeruginosa PAO 1; assay: Antibacterial activity, agar-dilution MIC, organism No. 17; type: cell-based; conditions: Pseudomonas aeruginosa, PAO1; Organism No. 17, bouillon-agar; read-out: Minimum Inhibitory Concentration
In short: as §1

[17] = test system: Klebsiella pneumoniae PCI-602; assay: Antibacterial activity, agar-dilution MIC, organism No. 7; type: cell-based; conditions: Klebsiella pneumoniae, PCI602; Organism No. 7, bouillon-agar; read-out: Minimum Inhibitory Concentration
In short: as §1

[18] = test system: Micrococcus luteus ATCC 9341; assay: Antibacterial activity, agar-dilution MIC, organism No. 25; type: cell-based; conditions: Micrococcus luteus, ATCC9341; Organism No. 25, bouillon-agar; read-out: Minimum Inhibitory Concentration
In short: as §1

[19] = test system: Escherichia coli K12 C600 IAM 1264; assay: Antibacterial activity, agar-dilution MIC, organism No. 6; type: cell-based; conditions: Escherichia coli, IAM1264; Organism No. 6, bouillon-agar; read-out: Minimum Inhibitory Concentration
In short: as §1

[20] = test system: Streptococcus pyogenes Cook; assay: Antibacterial activity, agar-dilution MIC, organism No. 4; type: cell-based; conditions: Streptococcus pyogenes; Organism No. 4, bouillon-agar; read-out: Minimum Inhibitory Concentration
In short: as §1

[21] = test system: Proteus mirabilis IFO 3849; assay: Antibacterial activity, agar-dilution MIC, organism No. 19; type: cell-based; conditions: Proteus mirabilis, IFO3849; Organism No. 19, bouillon-agar; read-out: Minimum Inhibitory Concentration
In short: as §1

[22] = test system: Staphylococcus aureus Terajima; assay: Antibacterial activity, agar-dilution MIC, organism No. 2; type: cell-based; conditions: Staphylococcus aureus; Organism No. 2, bouillon-agar; read-out: Minimum Inhibitory Concentration
In short: as §1

[23] = test system: Staphylococcus aureus MS 353; assay: Antibacterial activity, agar-dilution MIC, organism No. 3; type: cell-based; conditions: Staphylococcus aureus, MS353; Organism No. 3, bouillon-agar; read-out: Minimum Inhibitory Concentration
In short: as §1

[24] = test system: Enterobacter cloacae 963; assay: Antibacterial activity, agar-dilution MIC, organism No. 24; type: cell-based; conditions: Enterobacter cloacae, 963; Organism No. 24, bouillon-agar; read-out: Minimum Inhibitory Concentration
In short: as §1

[25] = test system: Streptococcus faecium IFO 3826; assay: Antibacterial activity, agar-dilution MIC, organism No. 27; type: cell-based; conditions: Enterococcus faecium, IFO3826; Organism No. 27, bouillon-agar; read-out: Minimum Inhibitory Concentration
In short: as §1

[26] = test system: Salmonella shottmuelleri 8006; assay: Antibacterial activity, agar-dilution MIC, organism No. 11; type: cell-based; conditions: Salmonella, 8006; Organism No. 11, bouillon-agar; read-out: Minimum Inhibitory Concentration
In short: as §1

[27] = test system: Salmonella typhi 901; assay: Antibacterial activity, agar-dilution MIC, organism No. 9; type: cell-based; conditions: Salmonella enterica, TYPHI, read-out: Minimum Inhibitory Concentration
In short: as §1

[28] = test system: Serratia marcescens IAM 1184; assay: Antibacterial activity, agar-dilution MIC, organism No. 13; type: cell-based; conditions: Serratia marcescens, IAM1184; Organism No. 13, bouillon-agar; read-out: Minimum Inhibitory Concentration
In short: as §1

[29] = test system: Mycoplasma pneumoniae IID817; assay: Antimycoplasmal activity, MIC by phenol red colour change, organism No. 28; type: cell-based; conditions: Mycoplasma, IID817; Organism No. 28, PPLO broth + 1% glucose, 37° C.; read-out: Minimum Inhibitory Concentration (MIC)
Experimental: Mycoplasma pneumoniae IID817 was used as the test microorganism in a culture medium prepared by adding 1% of glucose to "PPLO broth (manufactured by Difco Co.) liquid culture medium" at 37° C. with phenol red as an indicator, thereby culturing the test microorganism.

[30] = test system: Salmonella enteritidis G 14; assay: Antibacterial activity, agar-dilution MIC, organism No. 12; type: cell-based; conditions: Salmonella enterica, ENTERITIDIS; Organism No. 12, bouillon-agar; read-out: Minimum Inhibitory Concentration
In short: as §1

[31] = test system: Proteus vulgaris HX-19; assay: Antibacterial activity, agar-dilution MIC, organism No. 21; type: cell-based; conditions: Proteus vulgaris, HX19; Organism No. 21, bouillon-agar; read-out: Minimum Inhibitory Concentration
In short: as §1

| Compound | MIC [1] [µg/mL] | MIC [2] [µg/mL] | MIC [3] [µg/mL] | MIC [4] [µg/mL] | MIC [5] [µg/mL] | MIC [6] [µg/mL] | MIC [7] [µg/mL] | MIC [8] [µg/mL] | MIC [9] [µg/mL] | MIC [10] [µg/mL] | MIC [11] [µg/mL] | MIC [12] [µg/mL] | MIC [13] [µg/mL] | MIC [15] [µg/mL] | MIC [16] [µg/mL] | MIC [17] [µg/mL] | MIC [18] [µg/mL] | MIC [19] [µg/mL] | MIC [20] [µg/mL] | MIC [21] [µg/mL] | other results |
| --- | --- | --- | --- | --- | --- | --- | --- | --- | --- | --- | --- | --- | --- | --- | --- | --- | --- | --- | --- | --- | --- |
| [C-]#[N+]C12CC3(/C=C/C(=O)OCc4cc([N+](=O)[O-])ccc4O)OC3C1O2 (stereo not drawn) [Compound No. 17] | > 200 | > 200 | > 200 | > 200 | > 200 | > 200 | > 100 | > 200 | > 200 | > 200 | > 200 | > 100 | > 200 | > 200 | > 200 | > 200 | 200 (≈ 581 µM) | > 200 | > 200 | > 200 | stability (in words) [14]: tendency thereof of decomposition in a non-solvent state; MIC [22]: > 200 µg/mL; MIC [23]: > 200 µg/mL; MIC [24]: > 200 µg/mL; MIC [25]: > 200 µg/mL; MIC [26]: > 200 µg/mL; MIC [27]: 200 µg/mL (≈ 581 µM); MIC [28]: > 200 µg/mL; MIC [29]: 100 µg/mL; MIC [30]: > 200 µg/mL; MIC [31]: > 200 µg/mL |
| [C-]#[N+]C12CC3(/C=C/C(=O)OCc4ccccc4)OC3C1O2 (stereo not drawn) [Compound No. 10, benzyl β-substituted acrylate] | 3.13 (≈ 11 µM) | > 100 | 0.39 (≈ 1.38 µM) | < 0.1 | 6.25 (≈ 22.1 µM) | > 100 | 1.56 (≈ 5.51 µM) | 0.78 (≈ 2.75 µM) | 3.13 (≈ 11 µM) | > 100 | 0.78 (≈ 2.75 µM) | 0.8 (≈ 2.82 µM) | 0.39 (≈ 1.38 µM) | 6.25 (≈ 22.1 µM) | > 100 | < 0.1 | < 0.1 | 3.13 (≈ 11 µM) | 3.13 (≈ 11 µM) | 3.13 (≈ 11 µM) | stability (in words) [14]: decomposed and coloured when left in a non-solvent state; MIC [22]: 1.56 µg/mL (≈ 5.51 µM); MIC [23]: 0.39 µg/mL (≈ 1.38 µM); MIC [24]: 50 µg/mL (≈ 177 µM); MIC [25]: 1.56 µg/mL (≈ 5.51 µM); MIC [26]: < 0.1 µg/mL; MIC [27]: 0.78 µg/mL (≈ 2.75 µM); MIC [28]: 12.5 µg/mL (≈ 44.1 µM); MIC [29]: < 0.2 µg/mL; MIC [30]: 3.13 µg/mL (≈ 11 µM); MIC [31]: < 0.1 µg/mL |
| [C-]#[N+]C12CC3(/C=C/C(=O)N4CCCC4)OC3C1O2 (stereo not drawn) [compound 21] | 100 (≈ 406 µM) | > 200 | 50 (≈ 203 µM) | 25 (≈ 102 µM) | > 200 | > 200 | 3.13 (≈ 12.7 µM) | 200 (≈ 812 µM) | > 200 | > 200 | 100 (≈ 406 µM) | 6.25 (≈ 25.4 µM) | 50 (≈ 203 µM) | > 200 | > 200 | 50 (≈ 203 µM) | 0.39 (≈ 1.58 µM) | > 200 | 100 (≈ 406 µM) | > 200 | MIC [22]: 100 µg/mL (≈ 406 µM); MIC [23]: 50 µg/mL (≈ 203 µM); MIC [24]: > 200 µg/mL; MIC [25]: > 200 µg/mL; MIC [26]: 50 µg/mL (≈ 203 µM); MIC [27]: 50 µg/mL (≈ 203 µM); MIC [28]: > 200 µg/mL; MIC [29]: 1.56 µg/mL; MIC [30]: 50 µg/mL (≈ 203 µM); MIC [31]: 1.56 µg/mL (≈ 6.33 µM) |
| [C-]#[N+]C12CC3(/C=C/C(=O)OCC)OC3C1O2 (stereo not drawn) [Compound No. 2, ethyl β-substituted acrylate] | 25 (≈ 113 µM) | > 200 | 6.25 (≈ 28.3 µM) | 6.25 (≈ 28.3 µM) | > 200 | > 200 | 12.5 (≈ 56.5 µM) | 50 (≈ 226 µM) | 100 (≈ 452 µM) | > 200 | 6.25 (≈ 28.3 µM) | 3.13 (≈ 14.1 µM) | 12.5 (≈ 56.5 µM) | 50 (≈ 226 µM) | > 200 | 6.25 (≈ 28.3 µM) | 1.56 (≈ 7.05 µM) | 25 (≈ 113 µM) | > 200 | 25 (≈ 113 µM) | stability (in words) [14]: decomposing and colouring tendency in a non-solvent state; MIC [22]: 12.5 µg/mL (≈ 56.5 µM); MIC [23]: 12.5 µg/mL (≈ 56.5 µM); MIC [24]: > 200 µg/mL; MIC [25]: 12.5 µg/mL (≈ 56.5 µM); MIC [26]: 6.25 µg/mL (≈ 28.3 µM); MIC [27]: 6.25 µg/mL (≈ 28.3 µM); MIC [28]: > 200 µg/mL; MIC [29]: < 0.2 µg/mL; MIC [30]: 6.25 µg/mL (≈ 28.3 µM); MIC [31]: 0.2 µg/mL (≈ 0.904 µM) |
